From patent US9481659B2, “Selective heterocyclic sphingosine 1 phosphate receptor modulators” (Celgene International II SÀRL, priority 2011, dated 2016)
Counter-ions that a name gives are not always drawn.

These compounds were tested against S1P1/EDG1 (Homo sapiens, UniProt P21453) (assay: S1P1 CRE-bla CHOK1 reporter assay, inhibition of Forskolin induced cAMP). Conditions: agonist activity range; S1P1 CRE-bla CHOK1 cells, 2 μM Forskolin; read-out: S1P1 ACTIVITY.
Sequence of S1P1/EDG1 (P21453 whole entry): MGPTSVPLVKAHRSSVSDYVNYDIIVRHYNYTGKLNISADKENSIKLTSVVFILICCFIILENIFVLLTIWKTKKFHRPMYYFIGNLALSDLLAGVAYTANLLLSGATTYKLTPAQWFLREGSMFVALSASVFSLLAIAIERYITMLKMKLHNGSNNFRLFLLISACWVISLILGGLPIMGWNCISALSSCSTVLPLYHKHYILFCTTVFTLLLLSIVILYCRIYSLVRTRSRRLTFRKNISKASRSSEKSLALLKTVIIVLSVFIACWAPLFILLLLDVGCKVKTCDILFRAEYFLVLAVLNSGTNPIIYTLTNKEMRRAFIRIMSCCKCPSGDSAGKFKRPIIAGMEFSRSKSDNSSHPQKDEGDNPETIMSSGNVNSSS
Assay type: cell-based
Method: Generation of S1P1-Mediated Inhibition of cAMP Reporter Assay
A mammalian expression plasmid containing S1P1/EDG1 cloned into pcDNA3.1 was purchased from Missouri S&T cDNA Resource Centre. […] S1P1/pcDNA3.1 was transfected into the CRE-bla CHO K1 (Invitrogen) cell line, and stable single cell clones were selected using standard techniques.
S1P1 CRE-Bla CHOK1 Reporter Assay—Characterization of S1P1 Agonists
Cells were seeded into 384-well black wall/clear bottom plates at 10^4 cells/well/19.5 μl assay media (DMEM-phenol free, 0.5% charcoal/dextran stripped serum, 2 mM glutamine, 0.1 mM NEAA, 1 mM Na-Pyruvate, 25 mM Hepes) and incubated for 18 hrs at 37° C. in 5% CO2. Dose response curves (10-point) were generated in 10 mM Hepes, 0.1% Pluronic F127, in the presence of Forskolin. Cells were treated with 0.5 μl compound in the presence of 2 μM Forskolin for 4 hrs at 37° C. The FRET-based β-lactamase fluorescent substrate (LiveBLAzer™-FRET B/G Loading Kit CC4-AM; Invitrogen) was prepared according to manufacturer's directions, and incubated with cells for 2 hrs at room temperature.
`CC(C)Oc1ccc(-c2nnc(-c3cccc4c3CCC[C@@H]4NCc3ncco3)s2)cc1C#N` [Compound 268] gave an EC50 of 0.5 to 5 nM.
Work on `CNC(=O)CS(=O)(=O)N[C@@H]1CCCc2c(-c3nnc(-c4ccc(OC(C)C)c(C#N)c4)s3)cccc21` [Compound 294] yielded an EC50 of 0.05 to 0.5 nM.
`CC(C)Oc1ccc(-c2nc(-c3cccc4c3CC[C@@H]4N)ns2)cc1C#N` [Compound 307, (S)-5-(3-(1-amino-2,3-dihydro-1H-Inden-4-yl)-1,2,4-thiadiazol-5-yl)-2-isopropoxy benzonitrile hydrochloride] gave an EC50 of 0.5 to 5 nM.
Work on `CC(C)Oc1ccc(-c2nnc(-c3cccc4c3CC[C@H]4NS(C)(=O)=O)s2)cc1C#N` [Compound 34, (R)—N-(4-(5-(3-cyano-4-isopropoxyphenyl)-1,3,4-thiadiazol-2-yl)-2,3-dihydro-1H-inden-1-yl)methanesulfonamide] yielded an EC50 of 0.05 to 0.5 nM.
Compound `CC(C)Oc1ccc(-c2ncc(-c3cccc4c3CC[C@H]4NC(=O)N3CC[C@H](N(C)C)C3)s2)cc1C#N` [Compound 182] has an EC50 of 0.5 to 5 nM.
With `CC(C)Oc1ccc(-c2ncc(-c3cccc4c3CC[C@H]4NC(=O)N3CC[C@@H](N(C)C)C3)s2)cc1C#N` [Compound 183] the EC50 was 0.5 to 5 nM.
`CC(C)Oc1ccc(-c2nnc(-c3cccc4c3CCC[C@@H]4NCc3ccncc3)s2)cc1C#N` [Compound 270] was tested, and the EC50 was 0.5 to 5 nM.
For `CC(C)Oc1ccc(-c2nnc(-c3cccc4c3CCC[C@H]4NC(=O)c3ccccn3)s2)cc1C#N` [Compound 235], the EC50 was 0.5 to 5 nM.
For `CC(C)Oc1ccc(-c2ncc(-c3cccc4c3CC[C@H]4NC(=O)N3CCC[C@@H](O)C3)s2)cc1C#N` [Compound 198], the EC50 was 0.05 to 0.5 nM.
For `CC(C)Oc1ccc(-c2nsc(-c3cccc4c3CC[C@@H]4NS(N)(=O)=O)n2)cc1C#N` [Compound 310, (S)—N-(4-(3-(3-cyano-4-isopropoxyphenyl)-1,2,4-thiadiazol-5-yl)-2,3-dihydro-1H-inden-1-yl) sulfamide], the EC50 was 0.05 to 0.5 nM.
In the case of `CC(C)Oc1ccc(-c2nnc(-c3cccc4c3CCC[C@H]4NC(=O)CCN(C)C)s2)cc1C#N` [Compound 257, (R)—N-(5-(5-(3-cyano-4-isopropoxyphenyl)-1,3,4-thiadiazol-2-yl)-1,2,3,4-tetrahydronaphthalen-1-yl)-3-(dimethylamino)propanamide], the EC50 is reported as over 5 nM.
Work on `COCCS(=O)(=O)N[C@@H]1CCCc2c(-c3cnc(-c4ccc(OC(C)C)c(C#N)c4)s3)cccc21` [Compound 285] yielded an EC50 of 0.5 to 5 nM.
Compound `COC(=O)CC1CCN(C(=O)N[C@@H]2CCc3c(-c4cnc(-c5ccc(OC(C)C)c(C#N)c5)s4)cccc32)CC1` [Compound 204] has an EC50 of 0.5 to 5 nM.
Compound `CC(C)Oc1ccc(-c2nnc(-c3cccc4c3CCC[C@H]4NC(=O)[C@H](N)CO)s2)cc1C#N` [Compound 247] has an EC50 of 0.5 to 5 nM.
Compound `CNCC(=O)N[C@@H]1CCCc2c(-c3nnc(-c4ccc(OC(C)C)c(C#N)c4)s3)cccc21` [Compound 251] has an EC50 of 0.5 to 5 nM.
Compound `CC(C)Oc1ccc(-c2ncc(-c3cccc4c3CC[C@H]4NS(=O)(=O)C3CC3)s2)cc1C#N` [Compound 117] has an EC50 of 0.05 to 0.5 nM.
Work on `CC(C)Oc1ccc(-c2ncc(-c3cccc4c3CC[C@H]4NC(=O)[C@H](N)CO)s2)cc1C#N` [Compound 80] yielded an EC50 of 0.05 to 0.5 nM.
In the case of `CC(=O)N[C@@H]1CCCc2c(-c3nnc(-c4ccc(OC(C)C)c(C#N)c4)s3)cccc21` [Compound 231, (R)—N-(5-(5-(3-cyano-4-isopropoxyphenyl)-1,3,4-thiadiazol-2-yl)-1,2,3,4-tetrahydronaphthalen-1-yl) acetamide], the EC50 is reported as 0.05 to 0.5 nM.
`CC(C)Oc1ccc(-c2nnc(-c3cccc4c3CCC[C@H]4NCc3cnco3)s2)cc1C#N` [Compound 273] gave an EC50 of 0.5 to 5 nM.
Compound `CC(C)Oc1ccc(-c2nnc(-c3cccc4c3CC[C@H]4NCc3ncc[nH]3)s2)cc1C#N` [Compound 29, (R)-5-(5-(1-(((1H-imidazol-2-yl)methyl)amino)-2,3-dihydro-1H-inden-4-yl)-1,3,4-thiadiazol-2-yl)-2-isopropoxybenzonitrile] has an EC50 of 0.05 to 0.5 nM.
Work on `CC(C)Oc1ccc(-c2nnc(-c3cccc4c3CCC[C@H]4NC(=O)CO)s2)cc1C#N` [Compound 245, (R)—N-(5-(5-(3-cyano-4-isopropoxyphenyl)-1,3,4-thiadiazol-2-yl)-1,2,3,4-tetrahydronaphthalen-1-yl)-2-hydroxyacetamide] yielded an EC50 of 0.05 to 0.5 nM.
In the case of `CC(C)Oc1ccc(-c2ncc(-c3cccc4c3CCC[C@H]4NS(N)(=O)=O)s2)cc1C#N` [Compound 277, (R)—N-(5-(2-(3-cyano-4-isopropoxyphenyl)thiazol-5-yl)-1,2,3,4-tetrahydronaphthalen-1-yl)sulfamide], the EC50 is reported as 0.05 to 0.5 nM.
For `CNCCC(=O)N[C@@H]1CCCc2c(-c3nnc(-c4ccc(OC(C)C)c(C#N)c4)s3)cccc21` [Compound 260], the EC50 was 0.5 to 5 nM.
`CC(C)Oc1ccc(-c2ncc(-c3cccc4c3CC[C@H]4NS(=O)(=O)CCN3CC[C@@H](N)C3)s2)cc1C#N` [Compound 135] showed an EC50 of over 5 nM.
`CC(C)Oc1ccc(-c2ncc(-c3cccc4c3CC[C@H]4NC(=O)[C@@H](N)CO)s2)cc1C#N` [Compound 79] showed an EC50 of 0.05 to 0.5 nM.
In the case of `CC(C)Oc1ccc(-c2nnc(-c3cccc4c3CCC[C@@H]4NC(=O)CCN(C)C)s2)cc1C#N` [Compound 256, (S)—N-(5-(5-(3-cyano-4-isopropoxyphenyl)-1,3,4-thiadiazol-2-yl)-1,2,3,4-tetrahydronaphthalen-1-yl)-3-(dimethylamino)propanamide], the EC50 is reported as 0.5 to 5 nM.
Work on `CC(C)Oc1ccc(-c2ncc(-c3cccc4c3CC[C@H]4NCC(=O)O)s2)cc1C#N` [Compound 96, (R)-2-((4-(2-(3-cyano-4-isopropoxyphenyl)thiazol-5-yl)-2,3-dihydro-1H-inden-1-yl)amino)acetic acid] yielded an EC50 of 0.05 to 0.5 nM.
Work on `CC(C)Oc1ccc(-c2nnc(-c3cccc4c3CC[C@H]4NC(=O)CN(C)C)s2)cc1C#N` [Compound 49] yielded an EC50 of 0.5 to 5 nM.
In the case of `CC(C)Oc1ccc(-c2nnc(-c3cccc4c3CCC[C@@H]4NCC(=O)N3CCCC3)s2)cc1C#N` [Compound 304, (S)-2-isopropoxy-5-(5-(5-((2-oxo-2-(pyrrolidin-1-yl)ethyl)amino)-5,6,7,8-tetrahydronaphthalen-1-yl)-1,3,4-thiadiazol-2-yl)benzonitrile], the EC50 is reported as 0.5 to 5 nM.
Work on `CC(C)Oc1ccc(-c2nnc(-c3cccc4c3CC[C@H]4NC(=O)N3CCC[C@H](O)C3)s2)cc1C#N` [Compound 61] yielded an EC50 of 0.05 to 0.5 nM.
Compound `CC(C)Oc1ccc(-c2nc(-c3cccc4c3CC[C@@H]4N(CCO)CCO)ns2)cc1C#N` [Compound 312, (S)-5-(3-(1-(bis(2-hydroxyethyl)amino)-2,3-dihydro-1H-inden-4-yl)-1,2,4-thiadiazol-5-yl)-2-isopropoxybenzonitrile hydrochloride] has an EC50 of 0.5 to 5 nM.
`CC(C)Oc1ccc(-c2ncc(-c3cccc4c3CC[C@H]4NS(=O)(=O)CCN3CCNCC3)s2)cc1C#N` [Compound 151] was tested, and the EC50 was over 5 nM.
Work on `CC(C)Oc1ccc(-c2nnc(-c3cccc4c3CCC[C@@H]4NC(=O)CCO)s2)cc1C#N` [Compound 255] yielded an EC50 of 0.05 to 0.5 nM.
`CC(C)Oc1ccc(-c2nnc(-c3cccc4c3CC[C@H]4NCCO)s2)cc1C#N` [Compound 17, (R)-5-(5-(1-((2-hydroxyethyl)amino)-2,3-dihydro-1H-inden-4-yl)-1,3,4-thiadiazol-2-yl)-2-isopropoxybenzonitrile] showed an EC50 of 0.05 to 0.5 nM.
With `CC(C)Oc1ccc(-c2nnc(-c3cccc4c3CCC[C@@H]4NCCS(C)(=O)=O)s2)cc1C#N` [Compound 297, (S)-2-isopropoxy-5-(5-(5-((2-(methylsulfonyl)ethyl)amino)-5,6,7,8-tetrahydronaphthalen-1-yl)-1,3,4-thiadiazol-2-yl)benzonitrile] the EC50 was 0.5 to 5 nM.
For `CC(C)Oc1ccc(-c2ncc(-c3cccc4c3CC[C@H]4NS(=O)(=O)CCN3CCC(O)CC3)s2)cc1C#N` [Compound 146], the EC50 was 0.5 to 5 nM.
With `CNC(=O)CS(=O)(=O)N[C@H]1CCCc2c(-c3nnc(-c4ccc(OC(C)C)c(C#N)c4)s3)cccc21` [Compound 295] the EC50 was 0.05 to 0.5 nM.
`CC(C)Oc1ccc(-c2nnc(-c3cccc4c3CC[C@H]4NCC(=O)N3CCOCC3)s2)cc1C#N` [Compound 25] gave an EC50 of 0.05 to 0.5 nM.
In the case of `CC(C)Oc1ccc(-c2nnc(-c3cccc4c3CCC[C@H]4NC(=O)[C@@H](N)CO)s2)cc1C#N` [Compound 248], the EC50 is reported as 0.05 to 0.5 nM.
`CC(C)Oc1ccc(-c2nnc(-c3cccc4c3CCC[C@@H]4NC(=O)CO)s2)cc1C#N` [Compound 246, (S)—N-(5-(5-(3-cyano-4-isopropoxyphenyl)-1,3,4-thiadiazol-2-yl)-1,2,3,4-tetrahydronaphthalen-1-yl)-2-hydroxyacetamide] gave an EC50 of 0.05 to 0.5 nM.
Work on `COC(=O)N[C@@H]1CCc2c(-c3cnc(-c4ccc(OC(C)C)c(C#N)c4)s3)cccc21` [Compound 89] yielded an EC50 of 0.5 to 5 nM.
Work on `CC(C)Oc1ccc(-c2ncc(-c3cccc4c3CC[C@H]4NS(=O)(=O)CCN3CCCCC3)s2)cc1C#N` [Compound 140] yielded an EC50 of over 5 nM.
For `CC(C)Oc1ccc(-c2nnc(-c3cccc4c3CC[C@H]4NC(=O)CN)s2)cc1C#N` [Compound 9], the EC50 was 0.05 to 0.5 nM.
For `CC(C)Oc1ccc(-c2ncc(-c3cccc4c3CC[C@H]4NS(C)(=O)=O)s2)cc1C#N` [Compound 111, (R)—N-(4-(2-(3-cyano-4-isopropoxyphenyl)thiazol-5-yl)-2,3-dihydro-1H-inden-1-yl)methanesulfonamide], the EC50 was 0.05 to 0.5 nM.
`CC(C)Oc1ccc(-c2nnc(-c3cccc4c3CC[C@H]4NC(=O)N3CC[C@H](O)C3)s2)cc1C#N` [Compound 54] gave an EC50 of 0.05 to 0.5 nM.
